Laboratory results taken from patent publication US10753901B2, “Integrated sensor for the rapid identification of bacteria using ISFETS” (priority 2012, dated 2020).

Experiments:
[1] = system: Staphylococcus aureus 8325; experiment: ISFET chip detection of potassium ion efflux after addition of lysostaphin, positive control; assay type: cell-based; details: compared to negative controls E. coli K12 BW25113 and P. aeruginosa (PA01), FIG. 11
Excerpt: In this example, the lysostaphin from Staphylococcus simulans was combined with Staphylococcus aureus 8325 as the positive control. As negative controls, lysostaphin from Staphylococcus simulans was combined with E. coli K12 BW25113, and lysostaphin from Staphylococcus simulans was combined with Pseudomonas aeruginosa (PA01).

E. coli K12 BW25113 = experiment: ISFET chip detection of potassium ion efflux after addition of antibacterial agent, positive control; assay type: cell-based; details: in SM buffer, compared to negative control BL21, FIG. 12
Protocol: In this example, the bacteriocin Colicin A9 was combined with E. coli K12 BW25113 as the positive control. As negative controls, Colicin A9 was combined with Staphylococcus aureus 8325, and Colicin A9 was combined with Pseudomonas aeruginosa (PA01). Experiments were performed as described above for Example 1, using the ISFET system 600.
In this example, the Polymyxin B antibiotic (PMB) was combined with E. coli K12 BW25113 in SM buffer as the positive control. As the negative control, Polymyxin B antibiotic (PMB) combined with E. coli K12 BL21 (DE3-Δtail) (referred to as BL21) in SM buffer. Experiments were performed as described above for Example 1, using the ISFET system 600.

lysostaphin: lysostaphin from Staphylococcus simulans
ISFET output from efflux of potassium ions [1]: output increases

Polymyxin B
ISFET output from efflux of potassium ions (E. coli K12 BW25113): output increases
